Source: PubChem BioAssay AID1963853 (Molecular Pharmacology Branch, DTP, NCI, 2024)
pIC50: −log10 of the molar value.

System: 266295-075-R-J1-PDC spheroid viability
Assay: Anticancer human tumor 266295-075-R-J1-PDC patient-derived head and neck squamous carcinoma cell line growth inhibition [POLQ]
Settings: spheroids with HUVEC and MSC; for pIC50: curve of first compound; for viability, T/C: stronger effect = lower value
Experimental: Multicellular complex tumor spheroid response to Polymerase (POL) inhibitors (novobiocin, ART-558, RP6685) in combination with a variety of drugs and investigational agents in selected tumor cell lines
The POL inhibitors (novobiocin, ART-558, and RP6685) were evaluated both individually and in combination with standard of care and investigational anticancer small molecules within a complex spheroid model of solid tumors. . Complex spheroids include a stromal component modeled by human endothelial cells (HUVEC) and fibroblasts modeled by human mesenchymal stem cells (MSCs). The concentration ranges selected for each drug and investigational agent were based upon clinically achievable concentrations if the clinical Cmax of the agent was known.
Compounds. The drugs and investigational agents: novobiocin (NSC847541), ART-558 (NSC835418), RP-6685 (NSC848927), peposertib (NSC802822), ceralasertib (NSC780249), elimusertib (NSC800525), camonsertib (NSC841442), AZD-1390 (NSC803789), olaparib (NSC753686), talazoparib (NSC767125), rucaparib (NSC756644), sotorasib (NSC818433), MRTX-1133 (NSC836407), SN-38 (NSC673596), topotecan (NSC609699), epotoside (NSC141540), doxorubicin (NSC123127), gemcitabine (NSC613327), 5-fluorouracil (NSC19893), paclitaxel (NSC125973), vemurafenib (NSC761431), MSA-2 (NSC828583), SN-011 (NSC837082), adavosertib (NSC754352), prexasertib (NSC758257), carboplatin (NSC241240) and oxaliplatin (NSC266046), were obtained from the National Cancer Institute (NCI) Developmental Therapeutics Program Chemical Repository (21). The FDA-approved anticancer drug set is available from the Developmental Therapeutics Program at https://dtp.cancer.gov/organization/dscb/obtaining/. […] The stock solutions were prepared in dimethyl sulfoxide (DMSO, Sigma-Aldrich, St. Louis, MO, cat. D2650), except for the platinum compounds which were prepared in saline (Quality Biological, Gaithersburg, MD, cat. 114-055-101), at 800-fold the tested concentration and stored at -70 degrees C prior to their use. All drugs and investigational agents were tested over a range starting from a high concentration at or near the clinical Cmax and decreasing in half-log increments. If the clinical Cmax for an agent had not been determined, the highest concentration tested was 10 microM, except for SN-38, which was tested at a high concentration of 1 microM.
Cell Culture. All cells were maintained in an incubator at 37 degrees C and 5% CO2 with 95% humidity. The PDC lines were cultured according to standard operating procedures established by the NCI PDMR (https://pdmr.cancer.gov). Table 3 of the manuscript, lists the cell lines along with the number of the three cell types plated to form the mct-spheroids and media for tumor cell growth. After thawing, all PDC lines, except 997537-175-T-J1-PDC and 415267-285-R-J2-PDC, were cultured in Matrigel-coated flasks prepared with a working solution of 1X Ham's F-12 nutrient mix, without supplementation (Thermo Fisher Scientific, cat. 11765054), 100 U/mL penicillin-streptomycin (Thermo Fisher Scientific, cat. 15140122), and 2.5% Matrigel (Corning Inc., Corning, NY, cat. 354248) for the first three passages. The two PDC lines 997537-175-T-J1-PDC and 415267-285-R-J2-PDC were cultured on uncoated flasks. The 857933-349-R-J2-PDC line was cultured in 6C/Colon 1B media containing advanced DMEM/F-12 (Thermo Fisher Scientific, cat. 12634028), 10 mM HEPES (Thermo Fisher Scientific, cat. 15630080), 1X GlutaMAX supplement (Thermo Fisher Scientific, cat. 35050061), 0.1 mg/mL primocin (InvivoGen, San Diego, CA, cat. ant-pm-2), 10% defined fetal bovine serum, heat inactivated (HyClone Laboratories Inc., Logan, UT, cat. SH30070.03HI), 50% L-WRN conditioned media (ATCC, cat. CRL-3276), 1.25 mM N-Acetyl-L-cysteine (Sigma-Aldrich, cat. A9165), 10 mM nicotinamide (Sigma-Aldrich, cat. N0636), 1X B-27 supplement (Thermo Fisher Scientific, cat. 17504044), 1X N-2 supplement (Thermo Fisher Scientific, cat. […]

[1] = second compound 0.0316 µM, first compound 0.0316 µM
[2] = second compound 0.0316 µM, first compound 0.1 µM
[3] = second compound 0.0316 µM, first compound 0.316 µM
[4] = second compound 0.0316 µM, first compound 1 µM
[5] = second compound 0.0316 µM, first compound 3.16 µM
[6] = second compound 0.0316 µM, first compound 10 µM
[7] = second compound 0.1 µM, first compound 0.0316 µM
[8] = second compound 0.1 µM, first compound 0.1 µM
[9] = second compound 0.1 µM, first compound 0.316 µM
[10] = second compound 0.1 µM, first compound 1 µM
[11] = second compound 0.1 µM, first compound 3.16 µM
[12] = second compound 0.1 µM, first compound 10 µM
[13] = second compound 0.316 µM, first compound 0.0316 µM
[14] = second compound 0.316 µM, first compound 0.1 µM
[15] = second compound 0.316 µM, first compound 0.316 µM
[16] = second compound 0.316 µM, first compound 1 µM
[17] = second compound 0.316 µM, first compound 3.16 µM
[18] = second compound 0.316 µM, first compound 10 µM
[19] = second compound 1 µM, first compound 0.0316 µM
[20] = second compound 1 µM, first compound 0.1 µM
[21] = second compound 1 µM, first compound 0.316 µM
[22] = second compound 1 µM, first compound 1 µM
[23] = second compound 1 µM, first compound 3.16 µM
[24] = second compound 1 µM, first compound 10 µM
[25] = second compound 3.16 µM, first compound 0.0316 µM
[26] = second compound 3.16 µM, first compound 0.1 µM
[27] = second compound 3.16 µM, first compound 0.316 µM
[28] = second compound 3.16 µM, first compound 1 µM
[29] = second compound 3.16 µM, first compound 3.16 µM
[30] = second compound 3.16 µM, first compound 10 µM
[31] = second compound 10 µM, first compound 0.0316 µM
[32] = second compound 10 µM, first compound 0.1 µM
[33] = second compound 10 µM, first compound 0.316 µM
[34] = second compound 10 µM, first compound 1 µM
[35] = second compound 10 µM, first compound 3.16 µM
[36] = second compound 10 µM, first compound 10 µM
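Note: spheroids exposed to compounds for seven days before readout.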

How did the pIC50 (second compound 0.0316 µM) turn out when `C=CC(=O)N1CCN(c2nc(=O)n(-c3c(C)ccnc3C(C)C)c3nc(-c4c(O)cccc4F)c(F)cc23)C(C)C1` (centres undefined) + Nc1ccc(C#CCN(C(=O)Cc2ncc(C(F)(F)F)cc2C(F)(F)F)c2ccc(F)cc2)nn1 was run?
Its pIC50 is < 5.00.

And the pIC50 (second compound 0.1 µM)?
Its pIC50 is < 5.00.

And the pIC50 (second compound 0.316 µM)?
Its pIC50 is < 5.00.

And the pIC50 (second compound 1 µM)?
Its pIC50 is < 5.00.

And the pIC50 (second compound 3.16 µM)?
The pIC50 was < 5.00.

And the pIC50 (second compound 10 µM)?
Its pIC50 is < 5.00.

And the viability, T/C [1]?
Its viability, T/C is 108%.

And the viability, T/C [2]?
Its viability, T/C is 96.4%.

And the viability, T/C [3]?
The viability, T/C was 101%.

What about the viability, T/C [4] of the same compound?
Its viability, T/C is 96.8%.

What about the viability, T/C [5] of the same compound?
The viability, T/C was 112%.

And the viability, T/C [6]?
Its viability, T/C is 107%.

What about the viability, T/C [7] of the same compound?
Its viability, T/C is 96%.

And the viability, T/C [8]?
The viability, T/C was 106%.

What about the viability, T/C [9] of the same compound?
The viability, T/C was 100%.

And the viability, T/C [10]?
The viability, T/C was 111%.

And the viability, T/C [11]?
The viability, T/C was 108%.

What about the viability, T/C [12] of the same compound?
The viability, T/C was 112%.

And the viability, T/C [13]?
Its viability, T/C is 89.8%.

And the viability, T/C [14]?
Its viability, T/C is 107%.

What about the viability, T/C [15] of the same compound?
Its viability, T/C is 90.6%.

What about the viability, T/C [16] of the same compound?
Its viability, T/C is 107%.

What about the viability, T/C [17] of the same compound?
The viability, T/C was 145%.

What about the viability, T/C [18] of the same compound?
The viability, T/C was 125%.

And the viability, T/C [19]?
Its viability, T/C is 101%.

And the viability, T/C [20]?
Its viability, T/C is 95.5%.

And the viability, T/C [21]?
The viability, T/C was 133%.

And the viability, T/C [22]?
The viability, T/C was 101%.

And the viability, T/C [23]?
Its viability, T/C is 124%.

What about the viability, T/C [24] of the same compound?
Its viability, T/C is 73.9%.

What about the viability, T/C [25] of the same compound?
The viability, T/C was 98.4%.

And the viability, T/C [26]?
The viability, T/C was 93.8%.

What about the viability, T/C [27] of the same compound?
Its viability, T/C is 94.2%.

What about the viability, T/C [28] of the same compound?
Its viability, T/C is 108%.

And the viability, T/C [29]?
The viability, T/C was 117%.

And the viability, T/C [30]?
Its viability, T/C is 103%.

And the viability, T/C [31]?
The viability, T/C was 106%.

What about the viability, T/C [32] of the same compound?
The viability, T/C was 72.8%.

What about the viability, T/C [33] of the same compound?
Its viability, T/C is 92.3%.

What about the viability, T/C [34] of the same compound?
Its viability, T/C is 106%.

What about the viability, T/C [35] of the same compound?
Its viability, T/C is 105%.

And the viability, T/C [36]?
The viability, T/C was 108%.

What does the source list for `COc1ccc([C@@H](O)c2cc(-c3ncnc4cc(N5CCOCC5)ccc34)c(F)cc2Cl)nn1` + Nc1ccc(C#CCN(C(=O)Cc2ncc(C(F)(F)F)cc2C(F)(F)F)c2ccc(F)cc2)nn1?
pIC50 (second compound 0.0316 µM): 5.28; pIC50 (second compound 0.1 µM): 5.61; pIC50 (second compound 0.316 µM): 5.31; pIC50 (second compound 1 µM): 5.57; pIC50 (second compound 3.16 µM): 5.49; pIC50 (second compound 10 µM): 5.60; viability, T/C [1]: 87.8%; viability, T/C [2]: 91.7%; viability, T/C [3]: 72.4%; viability, T/C [4]: 89%; viability, T/C [5]: 59.4%; viability, T/C [6]: 38%; viability, T/C [7]: 78.3%; viability, T/C [8]: 89.7%; viability, T/C [9]: 71.6%; viability, T/C [10]: 73.9%; viability, T/C [11]: 43.2%; viability, T/C [12]: 40%; viability, T/C [13]: 93%; viability, T/C [14]: 94.9%; viability, T/C [15]: 71.4%; viability, T/C [16]: 75.4%; viability, T/C [17]: 57.4%; viability, T/C [18]: 37.7%; viability, T/C [19]: 113%; viability, T/C [20]: 120%; viability, T/C [21]: 81.1%; viability, T/C [22]: 71%; viability, T/C [23]: 49.3%; viability, T/C [24]: 29.6%; viability, T/C [25]: 98.6%; viability, T/C [26]: 109%; viability, T/C [27]: 82.8%; viability, T/C [28]: 65.9%; viability, T/C [29]: 55%; viability, T/C [30]: 38.2%; viability, T/C [31]: 104%; viability, T/C [32]: 94.2%; viability, T/C [33]: 87.9%; viability, T/C [34]: 61.2%; viability, T/C [35]: 46.8%; viability, T/C [36]: 42.6%
